Experimental data: article PMC7541675 (Molecular cancer therapeutics, 2020)
Where two headings read alike, the source gives them in different places. One block for each compound: values may come before it.

Columns and labels:
[1] = in vivo
[2] = test system: ovarian cancer; conditions: cited from earlier work
[3] = Pharmacokinetic analyses of paclitaxel and sorafenib in plasma; conditions: paclitaxel 80 mg/m^2 IV, C1D15 (with sorafenib); for Cmax: human, iv, Cmax mean (SD)
[4] = test system: patients with advanced refractory solid tumors
[5] = test system: patients; conditions: cited from earlier work
[6] = clinical; conditions: human, in vivo; for Cmax: Cmax mean (SD); for half-life: t1/2 mean (SD)
[7] = 200 mg BID; cited from earlier work
[8] = paclitaxel without bevacizumab, AURELIA paclitaxel cohort
[9] = in combination bevacizumab plus sorafenib, previous phase I studies
[10] = recurrent ovarian cancer patients
[11] = bevacizumab added to paclitaxel, AURELIA paclitaxel cohort

- paclitaxel exposure with concurrent sorafenib (drug interaction) [1]: no significant differences
- Cmax ([3]; cohort 1, sorafenib 200 mg BID 5/7, n=6): 4350 ng/mL
- Cmax ([3]; cohorts 2/2 expansion, sorafenib 200 mg BID 7/7, n=13): 3480 ng/mL
- Cmax mean (SD) ([3]; cohort 3, sorafenib 400 mg BID 5/7, n=2): 3,804 (1306) ng/mL
Compound: CC(=O)O[C@H]1C(=O)[C@@]2(C)[C@H]([C@H](OC(=O)c3ccccc3)[C@]3(O)C[C@H](OC(=O)[C@H](O)[C@@H](NC(=O)c4ccccc4)c4ccccc4)C(C)=C1C3(C)C)[C@]1(OC(C)=O)CO[C@@H]1C[C@@H]2O [paclitaxel]
- ORR [2, 8]: 30.2%
- OS [2, 8]: 13.2 months
- PFS [2, 8]: 3.9 months

Compound: CNC(=O)c1cc(Oc2ccc(NC(=O)Nc3ccc(Cl)c(C(F)(F)F)c3)cc2)ccn1 [sorafenib]
- Median number of cycles before sorafenib dose reduction to 200 mg QD 5/7 ([4]; human, in vivo): 3 cycles
- Patients needing further sorafenib dose reduction to 200 mg QOD ([4]; human, in vivo): 21%
- Patients on study ≥ 4 months who had sorafenib dose reductions ([4]; human, in vivo): 76%
- Patients requiring further sorafenib dose reduction to 200 mg QD 5/7 ([4]; human, in vivo): 62%
- Recommended phase II dose (RP2D) ([4]; human, in vivo): 200 mg BID 5/7
- Maximum tolerated dose (MTD) ([4]; sorafenib oral, with bevacizumab 5 mg/kg Q2W and paclitaxel 80 mg/m^2 QW x 3 every 4 weeks): 200 mg BID 7/7
- HFSR incidence expected with monotherapy ([5]; anti-VEGF monotherapy, all grades): 25–50%
- grade 3 HFSR incidence expected with monotherapy ([5]; anti-VEGF monotherapy): 10%
- maximum tolerated dose (MTD) of sorafenib [5, 9]: 200 mg twice daily (BID)
- t1/2 mean (SD) ([1]; human, po): 6.5 (2.2) h
- AUC0–8 mean (SD) ([1]; human, po, 200 mg): 14,911 (8,174) ng*hr/mL
- Cmax mean (SD) ([1]; human, po, 200 mg): 4,539 (2,333) ng/mL
- Cmax ([6]; po, 200 mg): 2760 ng/mL
- AUC(0-t) ([6]; po, 400 mg, AUC0–8 mean (SD)): 23000 ng·h/mL
- Cmax ([6]; po, 400 mg): 3820 ng/mL
- half-life ([6]; po, 400 mg): 7.8 h
- half-life ([6]; po): 4 h
- AUC(0-t) ([6]; sorafenib AUC0–8 in non-responders): 17300 ng·h/mL
- AUC(0-t) ([6]; sorafenib AUC0–8 in responders): 38100 ng·h/mL
- ORR, single agent [2, 10]: 3%
- OS, single agent [2, 10]: 16 months
- PFS, single agent [2, 10]: 2 months
- ORR ([2]; sorafenib dosed sequentially with topotecan, TRIAS randomized phase II, platinum-resistant ovarian cancer): 31%
- PFS ([2]; sorafenib dosed sequentially with topotecan, TRIAS, p=0.002): 6.7 months
- OS ([2]; sorafenib dosed sequentially with topotecan, TRIAS, p=0.017): 17 months
- AUC0–8, historical values with sorafenib alone [7]: 6,000–16,000 ng*h/mL

Compound: CC[C@@]1(O)C(=O)OCc2c1cc1n(c2=O)Cc2cc3c(CN(C)C)c(O)ccc3nc2-1 [topotecan]
- OS ([2]; topotecan alone, TRIAS): 10 months
- PFS ([2]; topotecan alone, TRIAS): 4.4 months

Compound: bevacizumab
- HTN incidence expected with monotherapy ([5]; human, in vivo): 15–30%
- maximum tolerated dose (MTD) of bevacizumab [5, 9]: 5 mg/kg Q2W
- PFS ([2]; bevacizumab added to chemotherapy, AURELIA, p<0.001): 6.7 months
- OS ([2]; bevacizumab added to chemotherapy, AURELIA, p=0.174): 16.6 months
- ORR [2, 11]: 53.3%
- OS [2, 11]: 22.4 months
- PFS [2, 11]: 10.4 months
- ORR, single agent [2, 10]: 20%
- OS, single agent [2, 10]: 17 months
